Key:
Format in all cases: in vivo
[1] = tested on: Echinochloa oryzacola Vasing.; experiment: Test Example 1: herbicidal activity, application before weed generation in submerged conditions; conditions: Application herbicide amount 320 g/ha; Seventeenth Table
How it was run: (§1)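 Submerged pot test: alluvial soil, 4 cm water, seeds sown mixed, 2.5-leaf rice transplanted; emulsion in water applied to surface day of sowing, dose g/ha; greenhouse 25–30° C.; 3 wk; 0–5 rating.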

[2] = tested on: Monochoria vaginalis; experiment: as above; conditions: Application herbicide amount 320 g/ha; Seventeenth Table
How it was run: as §1

[3] = tested on: Scirpus juncoides; experiment: as above; conditions: Application herbicide amount 320 g/ha; Seventeenth Table
How it was run: as §1

[4] = tested on: transplanted Oryza sativa; experiment: Test Example 1: effect on crop, application before weed generation in submerged conditions; conditions: Application herbicide amount 320 g/ha; Seventeenth Table
How it was run: as §1

[5] = tested on: Abutilon theophrasti; experiment: Test Example 4: herbicidal effect by application to foliage (diluvial soil, plastic box); conditions: for M: Application herbicide amount 320 g/ha; for M (Abutilon theophrasti) herbicidal effect: application to foliage, application herbicide amount 320 g/ha
How it was run: (§2)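 Read-out is a 0–5 visual grade of herbicidal ratio (5: ≥90%, almost withered; 0: ≤5%) taken three weeks after treatment. Compound was applied as a diluted emulsion to stem and leaf parts of 14-day greenhouse-grown plants (25° C. to 30° C.) at rates expressed as g/ha.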

[6] = tested on: Alopecurus myosuroides; experiment: as above; conditions: for J: Application herbicide amount 320 g/ha; for J (Alopecurus myosuroides) herbicidal effect: application to foliage, application herbicide amount 320 g/ha
How it was run: as §2

[7] = tested on: Apera spica-venti.; experiment: as above; conditions: for L: Application herbicide amount 320 g/ha; for L (Apera spica-venti.) herbicidal effect: application to foliage, application herbicide amount 320 g/ha
How it was run: as §2

[8] = tested on: Avena fatua; experiment: as above; conditions: for I: Application herbicide amount 320 g/ha; for I (Avena fatua) herbicidal effect: application to foliage, application herbicide amount 320 g/ha
How it was run: as §2

[9] = tested on: Chenopodium album; experiment: as above; conditions: for O: Application herbicide amount 320 g/ha; for O (Chenopodium album) herbicidal effect: application to foliage, application herbicide amount 320 g/ha
How it was run: as §2

[10] = tested on: Digitaria ciliaris; experiment: as above; conditions: for F: Application herbicide amount 320 g/ha; for F (Digitaria ciliaris) herbicidal effect: application to foliage, application herbicide amount 320 g/ha
How it was run: as §2

[11] = tested on: Echinochloa crus-galli var. crus-galli; experiment: as above; conditions: for H: Application herbicide amount 320 g/ha; for H (Echinochloa crus-galli var. crus-galli) herbicidal effect: application to foliage, application herbicide amount 320 g/ha
How it was run: as §2

[12] = tested on: Galium spurium; experiment: as above; conditions: for Q: Application herbicide amount 320 g/ha; for Q (Galium spurium) herbicidal effect: application to foliage, application herbicide amount 320 g/ha
How it was run: as §2

[13] = tested on: Lolium multiflorum Lam.; experiment: as above; conditions: for K: Application herbicide amount 320 g/ha; for K (Lolium multiflorum Lam.) herbicidal effect: application to foliage, application herbicide amount 320 g/ha
How it was run: as §2

[14] = tested on: Setaria viridis; experiment: as above; conditions: for G: Application herbicide amount 320 g/ha; for G (Setaria viridis) herbicidal effect: application to foliage, application herbicide amount 320 g/ha
How it was run: as §2

[15] = tested on: Veronica persica; experiment: as above; conditions: for R: Application herbicide amount 320 g/ha; for R (Veronica persica) herbicidal effect: application to foliage, application herbicide amount 320 g/ha
How it was run: as §2

[16] = tested on: Beta vulgaris ssp. vulgaris; experiment: Test Example 4: effect on crop by application to foliage (diluvial soil, plastic box); conditions: for f: Application herbicide amount 320 g/ha, effect on crop; for f (Beta vulgaris ssp. vulgaris) effect on crop: application to foliage, application herbicide amount 320 g/ha
How it was run: as §2

[17] = tested on: Brassica campestris L.; experiment: as above; conditions: for g: Application herbicide amount 320 g/ha, effect on crop; for g (Brassica campestris L.) effect on crop: application to foliage, application herbicide amount 320 g/ha
How it was run: as §2

[18] = tested on: Glycine max; experiment: as above; conditions: for c: Application herbicide amount 320 g/ha, effect on crop; for c (Glycine max) effect on crop: application to foliage, application herbicide amount 320 g/ha
How it was run: as §2

[19] = tested on: Triticum aestivum; experiment: as above; conditions: for e: Application herbicide amount 320 g/ha, effect on crop; for e (Triticum aestivum) effect on crop: application to foliage, application herbicide amount 320 g/ha
How it was run: as §2

[20] = tested on: Zea mays; experiment: as above; conditions: for b: Application herbicide amount 320 g/ha, effect on crop; for b (Zea mays) effect on crop: application to foliage, application herbicide amount 320 g/ha
How it was run: as §2

[21] = tested on: directly sowed Oryza sativa; experiment: as above; conditions: for d: Application herbicide amount 320 g/ha, effect on crop; for d (directly sowed Oryza sativa) effect on crop: application to foliage, application herbicide amount 320 g/ha
How it was run: as §2

SMILES	A: Echinochloa oryzicola Vasing. (herbicidal effect grade) [1]	C: Monochoria vaginalis (herbicidal effect grade) [2]	B: Scirpus juncoides (herbicidal effect grade) [3]	a: transplanted Oryza sativa (effect on crop grade) [4]	M [5]	J [6]	L [7]	I [8]	O [9]	F [10]	H [11]	Q [12]	K [13]	G [14]	R [15]	f [16]	g [17]	c [18]	e [19]	b [20]	also measured
Cc1nnc(NC(=O)c2ccc(C(F)(F)F)n3c(-c4cccs4)nnc23)o1 [1-057]	5 (Herbicidal ratio of 90% or more (almost completely withered))	4 (Herbicidal ratio of 70% or more and less than 90%)	5 (Herbicidal ratio of 90% or more (almost completely withered))	2 (Herbicidal ratio of 20% or more and less than 40%)	5 (Herbicidal ratio of 90% or more (almost completely withered))	2 (Herbicidal ratio of 20% or more and less than 40%)	2 (Herbicidal ratio of 20% or more and less than 40%)	3 (Herbicidal ratio of 40% or more and less than 70%)	5 (Herbicidal ratio of 90% or more (almost completely withered))	4 (Herbicidal ratio of 70% or more and less than 90%)	4 (Herbicidal ratio of 70% or more and less than 90%)	1 (Herbicidal ratio of 5% or more and less than 20%)	2 (Herbicidal ratio of 20% or more and less than 40%)	4 (Herbicidal ratio of 70% or more and less than 90%)	5 (Herbicidal ratio of 90% or more (almost completely withered))	5 (Herbicidal ratio of 90% or more (almost completely withered))	3 (Herbicidal ratio of 40% or more and less than 70%)	1 (Herbicidal ratio of 5% or more and less than 20%)	0 (Herbicidal ratio of 5% or less (almost no effect))	0 (Herbicidal ratio of 5% or less (almost no effect))	d [21]: 3 (Herbicidal ratio of 40% or more and less than 70%)
Cc1nnc(NC(=O)c2ccc(C(F)(F)F)n3c(COCC(F)(F)F)nnc23)o1 [1-020]	4 (Herbicidal ratio of 70% or more and less than 90%)	2 (Herbicidal ratio of 20% or more and less than 40%)	3 (Herbicidal ratio of 40% or more and less than 70%)	0 (Herbicidal ratio of 5% or less (almost no effect))	–	–	–	–	–	–	–	–	–	–	–	–	–	–	–	–	M (Abutilon theophrasti) herbicidal effect [5]: 2 (Herbicidal ratio of 20% or more and less than 40%); J (Alopecurus myosuroides) herbicidal effect [6]: 1 (Herbicidal ratio of 5% or more and less than 20%); L (Apera spica-venti.) herbicidal effect [7]: 1 (Herbicidal ratio of 5% or more and less than 20%); I (Avena fatua) herbicidal effect [8]: 1 (Herbicidal ratio of 5% or more and less than 20%); O (Chenopodium album) herbicidal effect [9]: 5 (Herbicidal ratio of 90% or more (almost completely withered)); F (Digitaria ciliaris) herbicidal effect [10]: 4 (Herbicidal ratio of 70% or more and less than 90%); H (Echinochloa crus-galli var. crus-galli) herbicidal effect [11]: 5 (Herbicidal ratio of 90% or more (almost completely withered)); Q (Galium spurium) herbicidal effect [12]: 3 (Herbicidal ratio of 40% or more and less than 70%); K (Lolium multiflorum Lam.) herbicidal effect [13]: 1 (Herbicidal ratio of 5% or more and less than 20%); G (Setaria viridis) herbicidal effect [14]: 3 (Herbicidal ratio of 40% or more and less than 70%); R (Veronica persica) herbicidal effect [15]: 3 (Herbicidal ratio of 40% or more and less than 70%); f (Beta vulgaris ssp. vulgaris) effect on crop [16]: 5 (Herbicidal ratio of 90% or more (almost completely withered)); g (Brassica campestris L.) effect on crop [17]: 3 (Herbicidal ratio of 40% or more and less than 70%); c (Glycine max) effect on crop [18]: 1 (Herbicidal ratio of 5% or more and less than 20%); e (Triticum aestivum) effect on crop [19]: 1 (Herbicidal ratio of 5% or more and less than 20%); b (Zea mays) effect on crop [20]: 0 (Herbicidal ratio of 5% or less (almost no effect)); d (directly sowed Oryza sativa) effect on crop [21]: 0 (Herbicidal ratio of 5% or less (almost no effect))
Cc1nnc(NC(=O)c2ccc(C(F)(F)F)n3c(C[S+](C)[O-])nnc23)o1 (stereo not drawn) [1-036]	4 (Herbicidal ratio of 70% or more and less than 90%)	3 (Herbicidal ratio of 40% or more and less than 70%)	3 (Herbicidal ratio of 40% or more and less than 70%)	4 (Herbicidal ratio of 70% or more and less than 90%)	–	–	–	–	–	–	–	–	–	–	–	–	–	–	–	–	M (Abutilon theophrasti) herbicidal effect [5]: 5 (Herbicidal ratio of 90% or more (almost completely withered)); J (Alopecurus myosuroides) herbicidal effect [6]: 3 (Herbicidal ratio of 40% or more and less than 70%); L (Apera spica-venti.) herbicidal effect [7]: 4 (Herbicidal ratio of 70% or more and less than 90%); I (Avena fatua) herbicidal effect [8]: 4 (Herbicidal ratio of 70% or more and less than 90%); O (Chenopodium album) herbicidal effect [9]: 5 (Herbicidal ratio of 90% or more (almost completely withered)); F (Digitaria ciliaris) herbicidal effect [10]: 5 (Herbicidal ratio of 90% or more (almost completely withered)); H (Echinochloa crus-galli var. crus-galli) herbicidal effect [11]: 5 (Herbicidal ratio of 90% or more (almost completely withered)); Q (Galium spurium) herbicidal effect [12]: 4 (Herbicidal ratio of 70% or more and less than 90%); K (Lolium multiflorum Lam.) herbicidal effect [13]: 3 (Herbicidal ratio of 40% or more and less than 70%); G (Setaria viridis) herbicidal effect [14]: 5 (Herbicidal ratio of 90% or more (almost completely withered)); R (Veronica persica) herbicidal effect [15]: 5 (Herbicidal ratio of 90% or more (almost completely withered)); f (Beta vulgaris ssp. vulgaris) effect on crop [16]: 5 (Herbicidal ratio of 90% or more (almost completely withered)); g (Brassica campestris L.) effect on crop [17]: 5 (Herbicidal ratio of 90% or more (almost completely withered)); c (Glycine max) effect on crop [18]: 3 (Herbicidal ratio of 40% or more and less than 70%); e (Triticum aestivum) effect on crop [19]: 3 (Herbicidal ratio of 40% or more and less than 70%); b (Zea mays) effect on crop [20]: 3 (Herbicidal ratio of 40% or more and less than 70%); d (directly sowed Oryza sativa) effect on crop [21]: 4 (Herbicidal ratio of 70% or more and less than 90%)
Cc1nnc(NC(=O)c2ccc(C(F)(F)F)n3c(CC[S+](C)[O-])nnc23)o1 (stereo not drawn) [1-084]	2 (Herbicidal ratio of 20% or more and less than 40%)	2 (Herbicidal ratio of 20% or more and less than 40%)	3 (Herbicidal ratio of 40% or more and less than 70%)	0 (Herbicidal ratio of 5% or less (almost no effect))	5 (Herbicidal ratio of 90% or more (almost completely withered))	0 (Herbicidal ratio of 5% or less (almost no effect))	0 (Herbicidal ratio of 5% or less (almost no effect))	3 (Herbicidal ratio of 40% or more and less than 70%)	5 (Herbicidal ratio of 90% or more (almost completely withered))	5 (Herbicidal ratio of 90% or more (almost completely withered))	5 (Herbicidal ratio of 90% or more (almost completely withered))	4 (Herbicidal ratio of 70% or more and less than 90%)	0 (Herbicidal ratio of 5% or less (almost no effect))	5 (Herbicidal ratio of 90% or more (almost completely withered))	5 (Herbicidal ratio of 90% or more (almost completely withered))	4 (Herbicidal ratio of 70% or more and less than 90%)	4 (Herbicidal ratio of 70% or more and less than 90%)	1 (Herbicidal ratio of 5% or more and less than 20%)	0 (Herbicidal ratio of 5% or less (almost no effect))	3 (Herbicidal ratio of 40% or more and less than 70%)	d [21]: 4 (Herbicidal ratio of 70% or more and less than 90%)

— patent US9708314B2, “Heterocyclic amide compound” (NISSAN CHEMICAL INDUSTRIES, LTD., priority 2013, dated 2017)
